Assay results: ChEMBL document CHEMBL4507302, “Data for DCP probe TP-020” (2021)

Tests used:
[1] = target: Serine/threonine-protein kinase D3 (Homo sapiens) (UniProt O94806); details: Compound concentration 1000.0 nM
[2] = target: Bone morphogenetic protein receptor type-1B (Homo sapiens) (UniProt O00238); details: Compound concentration 1000.0 nM
[3] = target: Peripheral plasma membrane protein CASK (Homo sapiens) (UniProt O14936); details: Compound concentration 1000.0 nM
[4] = target: Serine/threonine-protein kinase TAO1 (Homo sapiens) (UniProt Q7L7X3); details: Compound concentration 1000.0 nM
[5] = target: Casein kinase II subunit alpha (Homo sapiens) (UniProt P68400); details: Compound concentration 1000.0 nM
[6] = target: Serine/threonine-protein kinase PAK 2 (Homo sapiens) (UniProt Q13177); details: Compound concentration 1000.0 nM
[7] = target: Histamine H2 receptor (Homo sapiens) (UniProt P25021); details: Compound concentration 10.0 uM
[8] = target: Serine/threonine-protein kinase BRSK2 (Homo sapiens) (UniProt Q8IWQ3); details: Compound concentration 1000.0 nM
[9] = target: 5'-AMP-activated protein kinase catalytic subunit alpha-2 (Homo sapiens) (UniProt P54646); details: Compound concentration 1000.0 nM
[10] = target: Homeodomain-interacting protein kinase 2 (Homo sapiens) (UniProt Q9H2X6); details: Compound concentration 1000.0 nM
[11] = target: Calcium-dependent protein kinase 1 (Plasmodium falciparum) (UniProt P62344); details: Compound concentration 1000.0 nM
Chain of Calcium-dependent protein kinase 1 (Plasmodium falciparum) (P62344 2-524 limits assumed): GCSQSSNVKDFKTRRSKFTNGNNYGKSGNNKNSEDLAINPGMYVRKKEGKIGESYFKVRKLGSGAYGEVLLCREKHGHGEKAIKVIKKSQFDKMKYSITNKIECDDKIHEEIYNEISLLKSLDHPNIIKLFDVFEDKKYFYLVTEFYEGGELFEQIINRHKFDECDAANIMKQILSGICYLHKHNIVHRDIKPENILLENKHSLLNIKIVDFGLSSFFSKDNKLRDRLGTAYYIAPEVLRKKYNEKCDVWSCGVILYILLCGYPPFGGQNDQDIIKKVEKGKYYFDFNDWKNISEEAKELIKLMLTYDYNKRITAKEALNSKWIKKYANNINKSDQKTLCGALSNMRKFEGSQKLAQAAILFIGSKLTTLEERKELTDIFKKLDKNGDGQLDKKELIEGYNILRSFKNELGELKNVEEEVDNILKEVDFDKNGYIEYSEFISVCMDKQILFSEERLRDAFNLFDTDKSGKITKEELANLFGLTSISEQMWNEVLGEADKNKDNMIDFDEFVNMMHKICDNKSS

[12] = target: Calcium/calmodulin-dependent protein kinase kinase 2 (Homo sapiens) (UniProt Q96RR4); details: Compound concentration 1000.0 nM
[13] = target: Serine/threonine-protein kinase SIK3 (Homo sapiens) (UniProt Q9Y2K2); details: Compound concentration 1000.0 nM
[14] = target: Mitotic checkpoint serine/threonine-protein kinase BUB1 (Homo sapiens) (UniProt O43683); details: Compound concentration 1000.0 nM
[15] = target: Serine/threonine-protein kinase PLK2 (Homo sapiens) (UniProt Q9NYY3); details: Compound concentration 1000.0 nM
[16] = target: Epithelial discoidin domain-containing receptor 1 (Homo sapiens) (UniProt Q08345); details: Compound concentration 1000.0 nM
Chain of Epithelial discoidin domain-containing receptor 1 (Homo sapiens) (Q08345 whole entry, the tested form may be a part): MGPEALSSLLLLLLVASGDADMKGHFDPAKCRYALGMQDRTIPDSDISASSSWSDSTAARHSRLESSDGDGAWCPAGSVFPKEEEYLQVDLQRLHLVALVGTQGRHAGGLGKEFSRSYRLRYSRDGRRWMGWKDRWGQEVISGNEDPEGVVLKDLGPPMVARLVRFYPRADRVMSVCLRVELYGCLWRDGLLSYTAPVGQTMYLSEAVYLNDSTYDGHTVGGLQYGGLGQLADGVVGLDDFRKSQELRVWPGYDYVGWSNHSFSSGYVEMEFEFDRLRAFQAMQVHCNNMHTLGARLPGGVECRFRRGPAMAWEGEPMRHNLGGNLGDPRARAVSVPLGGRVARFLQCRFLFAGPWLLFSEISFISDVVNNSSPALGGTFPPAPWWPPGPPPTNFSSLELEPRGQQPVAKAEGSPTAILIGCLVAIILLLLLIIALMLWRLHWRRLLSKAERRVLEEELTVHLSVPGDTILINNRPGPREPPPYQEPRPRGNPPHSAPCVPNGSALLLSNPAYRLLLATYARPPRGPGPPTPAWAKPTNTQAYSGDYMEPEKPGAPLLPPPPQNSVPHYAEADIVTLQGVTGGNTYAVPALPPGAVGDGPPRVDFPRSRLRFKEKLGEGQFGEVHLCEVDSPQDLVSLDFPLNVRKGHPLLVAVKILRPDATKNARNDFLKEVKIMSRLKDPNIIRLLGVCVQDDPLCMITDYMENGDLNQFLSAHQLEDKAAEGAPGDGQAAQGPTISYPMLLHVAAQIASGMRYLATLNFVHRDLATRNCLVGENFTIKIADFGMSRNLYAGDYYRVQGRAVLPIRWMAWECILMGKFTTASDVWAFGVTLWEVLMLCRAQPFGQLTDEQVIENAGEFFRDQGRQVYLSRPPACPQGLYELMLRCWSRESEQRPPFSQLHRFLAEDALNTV

[17] = target: Dual specificity mitogen-activated protein kinase kinase 3 (Homo sapiens) (UniProt P46734); details: Compound concentration 1000.0 nM
[18] = tested on: Mast/stem cell growth factor receptor Kit (Homo sapiens), P10721 [V559D,T670I]; details: Compound concentration 1000.0 nM
[19] = target: Mitogen-activated protein kinase 11 (Homo sapiens) (UniProt Q15759); details: Compound concentration 1000.0 nM
[20] = target: Tyrosine-protein kinase HCK (Homo sapiens) (UniProt P08631); details: Compound concentration 1000.0 nM
Chain of Tyrosine-protein kinase HCK (Homo sapiens) (P08631 2-526 limits assumed): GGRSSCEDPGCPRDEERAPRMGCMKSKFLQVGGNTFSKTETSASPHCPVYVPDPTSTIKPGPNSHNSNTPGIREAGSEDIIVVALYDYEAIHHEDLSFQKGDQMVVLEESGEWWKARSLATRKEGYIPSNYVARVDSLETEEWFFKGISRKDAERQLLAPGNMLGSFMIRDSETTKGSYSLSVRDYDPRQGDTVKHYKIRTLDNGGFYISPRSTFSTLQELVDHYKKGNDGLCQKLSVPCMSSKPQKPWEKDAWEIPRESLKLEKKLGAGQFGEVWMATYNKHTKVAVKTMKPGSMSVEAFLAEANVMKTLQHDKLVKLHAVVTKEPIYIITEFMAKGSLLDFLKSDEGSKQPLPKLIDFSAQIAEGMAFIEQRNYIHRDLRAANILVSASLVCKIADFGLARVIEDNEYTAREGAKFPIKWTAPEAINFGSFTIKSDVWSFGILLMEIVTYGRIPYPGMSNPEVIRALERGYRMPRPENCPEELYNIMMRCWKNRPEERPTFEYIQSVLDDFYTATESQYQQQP

[21] = target: Ribosomal protein S6 kinase alpha-1 (Homo sapiens) (UniProt Q15418); details: Compound concentration 1000.0 nM
Chain of Ribosomal protein S6 kinase alpha-1 (Homo sapiens) (Q15418 whole entry): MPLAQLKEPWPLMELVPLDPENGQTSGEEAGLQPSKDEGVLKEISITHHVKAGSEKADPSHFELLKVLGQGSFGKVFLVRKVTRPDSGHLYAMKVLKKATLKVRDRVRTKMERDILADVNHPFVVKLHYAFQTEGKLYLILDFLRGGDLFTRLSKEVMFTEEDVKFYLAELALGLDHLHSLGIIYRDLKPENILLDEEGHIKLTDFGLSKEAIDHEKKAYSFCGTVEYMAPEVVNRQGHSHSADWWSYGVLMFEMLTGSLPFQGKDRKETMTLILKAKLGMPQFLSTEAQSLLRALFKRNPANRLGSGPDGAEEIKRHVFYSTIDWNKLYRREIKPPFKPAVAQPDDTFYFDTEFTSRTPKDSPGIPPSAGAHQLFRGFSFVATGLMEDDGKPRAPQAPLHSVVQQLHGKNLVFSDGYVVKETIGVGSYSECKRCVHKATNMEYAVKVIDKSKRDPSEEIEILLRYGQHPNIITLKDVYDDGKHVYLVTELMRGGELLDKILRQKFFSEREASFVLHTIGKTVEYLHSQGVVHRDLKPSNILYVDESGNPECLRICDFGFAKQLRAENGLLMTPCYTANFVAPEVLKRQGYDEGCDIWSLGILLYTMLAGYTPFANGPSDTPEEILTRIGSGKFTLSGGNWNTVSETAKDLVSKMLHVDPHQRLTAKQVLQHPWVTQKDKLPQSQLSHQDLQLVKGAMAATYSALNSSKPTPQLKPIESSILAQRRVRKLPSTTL

[22] = target: Rho-associated protein kinase 1 (Homo sapiens) (UniProt Q13464); details: Compound concentration 1000.0 nM
[23] = target: Eukaryotic translation initiation factor 2-alpha kinase 1 (Homo sapiens) (UniProt Q9BQI3); details: Compound concentration 1000.0 nM
[24] = target: Phosphatidylinositol 3-kinase C2 domain-containing subunit gamma (Homo sapiens) (UniProt O75747); details: Compound concentration 1000.0 nM
[25] = tested on: Epidermal growth factor receptor (Homo sapiens), P00533 [G719C]; details: Compound concentration 1000.0 nM
[26] = target: Rhodopsin kinase GRK1 (Homo sapiens) (UniProt Q15835); details: Compound concentration 1000.0 nM
[27] = tested on: Receptor-type tyrosine-protein kinase FLT3 (Homo sapiens), P36888 [R834Q]; details: Compound concentration 1000.0 nM
[28] = target: Serine/threonine-protein kinase pim-2 (Homo sapiens) (UniProt Q9P1W9); details: Compound concentration 1000.0 nM
Chain of Serine/threonine-protein kinase pim-2 (Homo sapiens) (Q9P1W9 whole entry, looked up): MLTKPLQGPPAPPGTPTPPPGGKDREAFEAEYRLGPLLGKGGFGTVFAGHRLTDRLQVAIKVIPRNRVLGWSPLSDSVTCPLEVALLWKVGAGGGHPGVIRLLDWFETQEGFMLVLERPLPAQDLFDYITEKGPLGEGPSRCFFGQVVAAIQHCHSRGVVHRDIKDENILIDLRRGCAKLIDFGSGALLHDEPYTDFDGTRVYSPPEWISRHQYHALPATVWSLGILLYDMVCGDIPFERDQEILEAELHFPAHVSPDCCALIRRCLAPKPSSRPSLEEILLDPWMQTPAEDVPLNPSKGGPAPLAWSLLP

[29] = target: ALK tyrosine kinase receptor (Homo sapiens) (UniProt Q9UM73); details: Compound concentration 1000.0 nM
[30] = target: Tyrosine-protein kinase receptor UFO (Homo sapiens) (UniProt P30530); details: Compound concentration 1000.0 nM
[31] = target: Non-receptor tyrosine-protein kinase TYK2 (Homo sapiens) (UniProt P29597); details: Compound concentration 1000.0 nM
[32] = target: Calcium/calmodulin-dependent protein kinase type IV (Homo sapiens) (UniProt Q16566); details: Compound concentration 1000.0 nM
[33] = target: cGMP-dependent protein kinase 1 (Homo sapiens) (UniProt Q13976); details: Compound concentration 1000.0 nM
[34] = tested on: Tyrosine-protein kinase ABL1 (Homo sapiens), P00519 [Q252H]; details: Compound concentration 1000.0 nM
[35] = tested on: eIF-2-alpha kinase GCN2 (Homo sapiens), Q9P2K8 [S808G]; details: Compound concentration 1000.0 nM
Chain of eIF-2-alpha kinase GCN2 (Homo sapiens), Q9P2K8 [S808G] (Q9P2K8 whole entry S808G): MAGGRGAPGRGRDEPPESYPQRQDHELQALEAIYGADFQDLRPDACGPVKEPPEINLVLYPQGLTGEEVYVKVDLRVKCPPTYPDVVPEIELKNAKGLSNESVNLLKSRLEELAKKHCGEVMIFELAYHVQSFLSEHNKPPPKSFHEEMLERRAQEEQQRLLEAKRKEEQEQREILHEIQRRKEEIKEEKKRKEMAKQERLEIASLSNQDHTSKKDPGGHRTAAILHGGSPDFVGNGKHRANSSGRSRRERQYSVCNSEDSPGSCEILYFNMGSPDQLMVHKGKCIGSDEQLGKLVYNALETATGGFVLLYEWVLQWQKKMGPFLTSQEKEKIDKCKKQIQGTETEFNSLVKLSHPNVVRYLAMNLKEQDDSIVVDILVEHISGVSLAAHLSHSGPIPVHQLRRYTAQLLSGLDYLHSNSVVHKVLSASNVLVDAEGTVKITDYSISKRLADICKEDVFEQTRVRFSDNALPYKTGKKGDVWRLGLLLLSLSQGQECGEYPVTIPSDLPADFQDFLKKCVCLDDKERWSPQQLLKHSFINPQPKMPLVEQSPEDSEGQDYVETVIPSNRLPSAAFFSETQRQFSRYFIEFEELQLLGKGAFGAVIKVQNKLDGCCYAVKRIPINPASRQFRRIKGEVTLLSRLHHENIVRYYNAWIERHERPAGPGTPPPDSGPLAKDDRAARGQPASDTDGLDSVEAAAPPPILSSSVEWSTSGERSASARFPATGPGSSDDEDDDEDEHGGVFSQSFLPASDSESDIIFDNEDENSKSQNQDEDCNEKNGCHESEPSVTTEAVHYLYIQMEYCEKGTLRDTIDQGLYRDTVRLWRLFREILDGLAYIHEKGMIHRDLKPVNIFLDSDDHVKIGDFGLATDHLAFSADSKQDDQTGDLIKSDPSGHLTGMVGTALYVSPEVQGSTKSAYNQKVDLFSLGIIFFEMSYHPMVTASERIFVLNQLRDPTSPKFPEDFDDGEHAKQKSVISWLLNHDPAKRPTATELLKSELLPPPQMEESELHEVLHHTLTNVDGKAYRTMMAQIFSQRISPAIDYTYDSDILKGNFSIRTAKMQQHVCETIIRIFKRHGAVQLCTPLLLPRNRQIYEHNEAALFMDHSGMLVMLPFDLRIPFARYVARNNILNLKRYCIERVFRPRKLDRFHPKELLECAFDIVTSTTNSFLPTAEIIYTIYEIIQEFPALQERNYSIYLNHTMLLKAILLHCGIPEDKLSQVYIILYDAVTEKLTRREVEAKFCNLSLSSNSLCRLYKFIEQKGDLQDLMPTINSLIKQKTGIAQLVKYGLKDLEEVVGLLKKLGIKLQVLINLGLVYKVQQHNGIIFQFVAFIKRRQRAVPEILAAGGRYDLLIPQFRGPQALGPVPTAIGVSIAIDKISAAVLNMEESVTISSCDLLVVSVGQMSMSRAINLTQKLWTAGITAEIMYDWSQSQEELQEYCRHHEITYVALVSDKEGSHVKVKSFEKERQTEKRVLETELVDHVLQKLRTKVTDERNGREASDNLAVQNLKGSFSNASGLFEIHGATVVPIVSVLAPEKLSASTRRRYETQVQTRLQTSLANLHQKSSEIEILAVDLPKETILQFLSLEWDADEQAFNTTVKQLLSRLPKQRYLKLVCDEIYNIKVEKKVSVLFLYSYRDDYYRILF

[36] = target: Leukocyte tyrosine kinase receptor (Homo sapiens) (UniProt P29376); details: Compound concentration 1000.0 nM
[37] = target: Ribosomal protein S6 kinase alpha-6 (Homo sapiens) (UniProt Q9UK32); details: Compound concentration 1000.0 nM
[38] = target: Serine/threonine-protein kinase 17B (Homo sapiens) (UniProt O94768); details: Compound concentration 1000.0 nM
Chain of Serine/threonine-protein kinase 17B (Homo sapiens) (O94768 whole entry): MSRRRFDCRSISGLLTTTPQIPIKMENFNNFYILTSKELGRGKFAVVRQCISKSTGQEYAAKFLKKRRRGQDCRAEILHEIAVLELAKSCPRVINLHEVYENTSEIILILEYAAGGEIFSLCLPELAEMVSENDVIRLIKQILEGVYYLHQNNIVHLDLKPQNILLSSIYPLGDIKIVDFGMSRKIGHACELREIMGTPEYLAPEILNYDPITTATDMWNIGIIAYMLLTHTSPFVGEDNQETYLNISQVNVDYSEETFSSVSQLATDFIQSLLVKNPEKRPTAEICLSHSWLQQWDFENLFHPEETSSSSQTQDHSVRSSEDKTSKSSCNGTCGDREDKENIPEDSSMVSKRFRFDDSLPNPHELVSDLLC

[39] = target: Bone morphogenetic protein receptor type-1A (Homo sapiens) (UniProt P36894); details: Compound concentration 1000.0 nM
[40] = target: Bone morphogenetic protein receptor type-2 (Homo sapiens) (UniProt Q13873); details: Compound concentration 1000.0 nM
[41] = target: Serine/threonine-protein kinase MARK1 (Homo sapiens) (UniProt Q9P0L2); details: Compound concentration 1000.0 nM
[42] = tested on: Epidermal growth factor receptor (Homo sapiens), P00533 [T790M]; details: Compound concentration 1000.0 nM
[43] = target: Serine/threonine-protein kinase 32B (Homo sapiens) (UniProt Q9NY57); details: Compound concentration 1000.0 nM
[44] = target: Phosphatidylinositol 4,5-bisphosphate 3-kinase catalytic subunit beta isoform (Homo sapiens) (UniProt P42338); details: Compound concentration 1000.0 nM
[45] = target: Tyrosine-protein kinase JAK2 (Homo sapiens) (UniProt O60674); details: Compound concentration 1000.0 nM

Nc1cnc(N2CCc3cc(S(=O)(=O)Nc4c(F)cc(Cl)cc4F)cc(N4CCCC4=O)c32)nc1
inactive: residual activity [1] 88% | residual activity [2] 100% | residual activity [3] 94% | residual activity [4] 80% | residual activity [5] 100% | residual activity [6] 78% | inhibition [7] 8.19% | residual activity [8] 80% | residual activity [9] 100% | residual activity [10] 100% | residual activity [11] 97% | residual activity [12] 100% | residual activity [13] 83% | residual activity [14] 100% | residual activity [15] 100% | residual activity [16] 100% | residual activity [17] 100% | residual activity [18] 100% | residual activity [19] 100% | residual activity [20] 100% | residual activity [21] 93% | residual activity [22] 96% | residual activity [23] 94% | residual activity [24] 78% | residual activity [25] 100% | residual activity [26] 100% | residual activity [27] 77% | residual activity [28] 85% | residual activity [29] 100% | residual activity [30] 69% | residual activity [31] 100% | residual activity [32] 96% | residual activity [33] 97% | residual activity [34] 98% | residual activity [35] 100% | residual activity [36] 100% | residual activity [37] 86% | residual activity [38] 100% | residual activity [39] 91% | residual activity [40] 100% | residual activity [41] 76% | residual activity [42] 88% | residual activity [43] 74% | residual activity [44] 87% | residual activity [45] 100%

Cn1nc(C(F)(F)F)cc1-c1cnc(N2CCc3cc(S(=O)(=O)Nc4c(F)cc(Cl)cc4F)cc(N4CCCC4=O)c32)nc1 [TP-020]
inactive: residual activity [1] 100% | residual activity [2] 83% | residual activity [3] 77% | residual activity [4] 99% | residual activity [5] 65% | residual activity [6] 100% | inhibition [7] 12.1% | residual activity [8] 73% | residual activity [9] 97% | residual activity [10] 74% | residual activity [11] 70% | residual activity [12] 93% | residual activity [13] 94% | residual activity [14] 87% | residual activity [15] 91% | residual activity [16] 100% | residual activity [17] 82% | residual activity [18] 88% | residual activity [19] 100% | residual activity [20] 95% | residual activity [21] 99% | residual activity [22] 89% | residual activity [23] 100% | residual activity [24] 94% | residual activity [25] 100% | residual activity [26] 95% | residual activity [27] 97% | residual activity [28] 100% | residual activity [29] 80% | residual activity [30] 93% | residual activity [31] 78% | residual activity [32] 100% | residual activity [33] 87% | residual activity [34] 99% | residual activity [35] 100% | residual activity [36] 94% | residual activity [37] 85% | residual activity [38] 100% | residual activity [39] 98% | residual activity [40] 77% | residual activity [41] 92% | residual activity [42] 94% | residual activity [43] 95% | residual activity [44] 85% | residual activity [45] 82%
